For one test, the target named is CLK2 (Homo sapiens, UniProt P49760). Nature of the test: SelectScreen kinase assay. The conditions noted are these: 1 h, 1 μM WEL028, 1 h preincubation.
In a further test the target is T1, GAK (Homo sapiens, UniProt O14976).
T1 sequence (O14976 1-1311): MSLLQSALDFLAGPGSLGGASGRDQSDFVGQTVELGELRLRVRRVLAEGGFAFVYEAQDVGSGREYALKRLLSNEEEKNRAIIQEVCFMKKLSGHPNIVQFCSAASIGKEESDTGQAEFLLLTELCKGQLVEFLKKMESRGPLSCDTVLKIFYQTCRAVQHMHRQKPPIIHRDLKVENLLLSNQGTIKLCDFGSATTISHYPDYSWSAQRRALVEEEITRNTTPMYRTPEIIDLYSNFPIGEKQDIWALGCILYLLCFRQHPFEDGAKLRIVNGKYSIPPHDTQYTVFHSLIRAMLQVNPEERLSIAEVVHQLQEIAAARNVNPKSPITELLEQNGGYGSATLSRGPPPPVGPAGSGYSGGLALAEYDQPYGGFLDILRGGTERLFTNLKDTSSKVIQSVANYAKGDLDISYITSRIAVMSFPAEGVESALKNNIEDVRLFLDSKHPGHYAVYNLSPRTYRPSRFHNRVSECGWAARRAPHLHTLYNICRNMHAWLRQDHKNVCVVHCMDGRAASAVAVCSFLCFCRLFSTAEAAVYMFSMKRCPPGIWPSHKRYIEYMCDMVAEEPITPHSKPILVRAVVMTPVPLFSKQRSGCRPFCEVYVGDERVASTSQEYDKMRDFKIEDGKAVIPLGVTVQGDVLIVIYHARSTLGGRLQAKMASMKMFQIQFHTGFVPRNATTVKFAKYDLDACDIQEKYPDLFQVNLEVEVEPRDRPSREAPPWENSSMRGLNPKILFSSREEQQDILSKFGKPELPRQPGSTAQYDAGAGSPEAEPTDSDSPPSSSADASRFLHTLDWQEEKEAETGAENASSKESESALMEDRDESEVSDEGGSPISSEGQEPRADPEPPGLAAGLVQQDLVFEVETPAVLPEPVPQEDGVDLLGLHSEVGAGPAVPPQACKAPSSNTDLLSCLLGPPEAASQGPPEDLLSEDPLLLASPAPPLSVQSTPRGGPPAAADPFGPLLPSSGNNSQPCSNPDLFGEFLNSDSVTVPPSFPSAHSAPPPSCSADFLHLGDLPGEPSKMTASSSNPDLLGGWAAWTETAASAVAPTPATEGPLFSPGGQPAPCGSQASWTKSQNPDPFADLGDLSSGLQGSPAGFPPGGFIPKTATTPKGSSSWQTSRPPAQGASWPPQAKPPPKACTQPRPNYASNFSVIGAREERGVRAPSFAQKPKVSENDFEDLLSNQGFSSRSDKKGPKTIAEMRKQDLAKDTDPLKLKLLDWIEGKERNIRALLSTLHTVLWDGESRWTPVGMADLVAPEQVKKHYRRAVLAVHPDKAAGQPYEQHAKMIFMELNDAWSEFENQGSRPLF
Briefly: SelectScreen kinase assay.

A further test deals with MYLK2 (skMLCK) (Homo sapiens, UniProt Q9H1R3). Briefly: SelectScreen kinase assay. Particulars: for Inhibition at 1 µM (%): MYLK2 (skMLCK), ZLYTE, ATP Km app.
Sequence of MYLK2 (skMLCK) (Q9H1R3 whole entry): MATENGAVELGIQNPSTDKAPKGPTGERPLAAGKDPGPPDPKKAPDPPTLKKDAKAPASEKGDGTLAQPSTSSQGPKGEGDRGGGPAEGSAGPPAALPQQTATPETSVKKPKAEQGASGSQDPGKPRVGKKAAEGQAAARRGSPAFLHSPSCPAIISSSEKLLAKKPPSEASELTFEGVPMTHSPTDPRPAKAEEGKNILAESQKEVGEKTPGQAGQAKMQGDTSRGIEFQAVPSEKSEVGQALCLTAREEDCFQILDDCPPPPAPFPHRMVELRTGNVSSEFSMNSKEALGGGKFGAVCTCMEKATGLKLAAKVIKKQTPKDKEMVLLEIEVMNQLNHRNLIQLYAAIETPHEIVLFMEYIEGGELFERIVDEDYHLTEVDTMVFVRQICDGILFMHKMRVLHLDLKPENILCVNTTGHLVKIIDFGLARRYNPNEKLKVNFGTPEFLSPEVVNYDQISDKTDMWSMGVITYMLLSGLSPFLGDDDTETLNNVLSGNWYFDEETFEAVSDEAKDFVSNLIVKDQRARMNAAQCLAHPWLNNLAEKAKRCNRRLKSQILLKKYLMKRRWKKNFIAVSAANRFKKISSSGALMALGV
The target of the next test is T2, PDK1 Direct (Homo sapiens, UniProt O15530).
T2 sequence (O15530 1-556): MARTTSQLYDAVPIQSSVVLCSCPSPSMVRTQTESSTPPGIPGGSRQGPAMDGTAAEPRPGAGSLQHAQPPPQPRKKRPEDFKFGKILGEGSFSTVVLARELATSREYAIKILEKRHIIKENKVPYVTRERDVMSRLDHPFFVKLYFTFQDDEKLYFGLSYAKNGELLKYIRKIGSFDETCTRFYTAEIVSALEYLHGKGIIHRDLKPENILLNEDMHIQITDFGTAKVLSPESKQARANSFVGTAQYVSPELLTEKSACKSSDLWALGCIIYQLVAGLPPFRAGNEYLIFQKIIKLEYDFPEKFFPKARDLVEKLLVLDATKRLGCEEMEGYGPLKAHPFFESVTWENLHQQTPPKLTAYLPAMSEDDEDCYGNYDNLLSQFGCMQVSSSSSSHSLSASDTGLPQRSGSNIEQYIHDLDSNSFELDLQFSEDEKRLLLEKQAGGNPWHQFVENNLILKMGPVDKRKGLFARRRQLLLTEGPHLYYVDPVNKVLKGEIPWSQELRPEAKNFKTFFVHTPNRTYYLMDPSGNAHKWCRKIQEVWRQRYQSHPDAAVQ
Briefly: SelectScreen kinase assay.

A further test addresses PIK3CG (p110 gamma) (Homo sapiens, UniProt P48736). Briefly: SelectScreen kinase assay.
A further test concerns the target T3, SGK (SGK1) (Homo sapiens, UniProt O00141).
T3 sequence (O00141 1-431): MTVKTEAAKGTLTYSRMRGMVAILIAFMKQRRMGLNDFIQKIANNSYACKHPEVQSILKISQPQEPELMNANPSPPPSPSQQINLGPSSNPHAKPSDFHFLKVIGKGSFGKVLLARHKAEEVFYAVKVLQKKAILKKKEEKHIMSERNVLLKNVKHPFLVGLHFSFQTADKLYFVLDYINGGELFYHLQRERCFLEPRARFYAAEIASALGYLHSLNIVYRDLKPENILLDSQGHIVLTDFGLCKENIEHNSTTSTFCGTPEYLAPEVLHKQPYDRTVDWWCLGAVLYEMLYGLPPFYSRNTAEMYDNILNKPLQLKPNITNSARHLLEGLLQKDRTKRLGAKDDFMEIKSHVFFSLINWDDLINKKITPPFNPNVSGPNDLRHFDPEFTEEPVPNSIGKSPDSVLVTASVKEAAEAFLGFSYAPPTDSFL
Briefly: SelectScreen kinase assay.

The target of another test is SLK (Homo sapiens, UniProt Q9H2G2). Briefly: SelectScreen kinase assay.
Sequence of SLK (Q9H2G2 whole entry): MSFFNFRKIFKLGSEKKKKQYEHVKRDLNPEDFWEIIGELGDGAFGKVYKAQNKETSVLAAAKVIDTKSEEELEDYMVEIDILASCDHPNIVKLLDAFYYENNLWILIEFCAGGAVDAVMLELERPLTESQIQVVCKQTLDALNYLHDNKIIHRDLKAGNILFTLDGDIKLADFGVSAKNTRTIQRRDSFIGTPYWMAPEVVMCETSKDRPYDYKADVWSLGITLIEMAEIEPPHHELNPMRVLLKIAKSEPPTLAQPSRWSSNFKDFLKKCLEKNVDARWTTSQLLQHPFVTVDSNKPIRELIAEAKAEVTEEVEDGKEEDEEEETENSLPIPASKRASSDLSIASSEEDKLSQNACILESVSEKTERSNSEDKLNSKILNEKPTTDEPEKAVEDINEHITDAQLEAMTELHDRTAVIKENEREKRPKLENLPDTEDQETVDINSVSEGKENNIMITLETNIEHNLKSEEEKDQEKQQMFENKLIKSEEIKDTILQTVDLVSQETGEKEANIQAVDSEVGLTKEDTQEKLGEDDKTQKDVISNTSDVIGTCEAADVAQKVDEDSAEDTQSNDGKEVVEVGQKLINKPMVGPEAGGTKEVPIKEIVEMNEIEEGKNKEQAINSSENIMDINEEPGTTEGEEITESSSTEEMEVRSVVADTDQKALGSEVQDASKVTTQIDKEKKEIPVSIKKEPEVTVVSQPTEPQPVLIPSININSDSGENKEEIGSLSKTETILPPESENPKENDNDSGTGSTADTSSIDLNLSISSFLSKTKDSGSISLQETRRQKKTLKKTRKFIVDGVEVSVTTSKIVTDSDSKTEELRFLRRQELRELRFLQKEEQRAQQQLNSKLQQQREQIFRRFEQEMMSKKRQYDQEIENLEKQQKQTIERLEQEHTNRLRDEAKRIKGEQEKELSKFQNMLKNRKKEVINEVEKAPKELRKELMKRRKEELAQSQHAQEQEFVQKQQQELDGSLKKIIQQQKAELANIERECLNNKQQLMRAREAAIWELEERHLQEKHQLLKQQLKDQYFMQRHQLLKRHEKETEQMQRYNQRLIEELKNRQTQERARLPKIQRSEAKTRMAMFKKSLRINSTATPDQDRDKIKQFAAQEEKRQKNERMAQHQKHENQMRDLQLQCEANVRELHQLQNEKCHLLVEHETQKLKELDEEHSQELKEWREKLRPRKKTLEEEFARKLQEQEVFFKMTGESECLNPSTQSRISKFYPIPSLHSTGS
In a further test the target is ~40 kDa protein (Homo sapiens, UniProt P28482). Nature of the test: Gel-based target engagement in HL-60 neutrophils. The conditions noted are these: HL-60, read-out: Inhibition of off-target labeling.
Sequence of ~40 kDa protein (P28482 2-360): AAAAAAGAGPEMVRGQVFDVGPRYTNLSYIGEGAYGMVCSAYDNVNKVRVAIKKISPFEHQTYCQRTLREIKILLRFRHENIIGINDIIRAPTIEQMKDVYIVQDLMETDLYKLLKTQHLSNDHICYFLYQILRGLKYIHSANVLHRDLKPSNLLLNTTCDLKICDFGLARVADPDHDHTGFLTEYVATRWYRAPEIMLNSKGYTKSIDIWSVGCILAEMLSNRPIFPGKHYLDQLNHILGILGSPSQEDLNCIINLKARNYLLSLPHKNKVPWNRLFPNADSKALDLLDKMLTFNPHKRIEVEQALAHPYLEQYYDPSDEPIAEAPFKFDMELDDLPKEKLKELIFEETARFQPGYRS
The mark [1] stands for this setting: 1 h, 1 μM WEL028, 1 h preincubation.

This note sets out measurements from paper PMC7316778 (Nature Communications, 2020).

The inhibition is the drop in the measured response relative to a control, in per cent. One may read the IC50 as the concentration needed to halve the response being measured. As a reminder, the Inhibition is the relative decrease from the control value, in per cent.

SMILES strings stand for the structures. Where “and” joins values, the source holds several entries; their conditions need not be identical. Identical values can stand only once. Like-named read-outs stand apart in the source and are kept apart here.

Sequence of PIK3CG (p110 gamma) (P48736 whole entry): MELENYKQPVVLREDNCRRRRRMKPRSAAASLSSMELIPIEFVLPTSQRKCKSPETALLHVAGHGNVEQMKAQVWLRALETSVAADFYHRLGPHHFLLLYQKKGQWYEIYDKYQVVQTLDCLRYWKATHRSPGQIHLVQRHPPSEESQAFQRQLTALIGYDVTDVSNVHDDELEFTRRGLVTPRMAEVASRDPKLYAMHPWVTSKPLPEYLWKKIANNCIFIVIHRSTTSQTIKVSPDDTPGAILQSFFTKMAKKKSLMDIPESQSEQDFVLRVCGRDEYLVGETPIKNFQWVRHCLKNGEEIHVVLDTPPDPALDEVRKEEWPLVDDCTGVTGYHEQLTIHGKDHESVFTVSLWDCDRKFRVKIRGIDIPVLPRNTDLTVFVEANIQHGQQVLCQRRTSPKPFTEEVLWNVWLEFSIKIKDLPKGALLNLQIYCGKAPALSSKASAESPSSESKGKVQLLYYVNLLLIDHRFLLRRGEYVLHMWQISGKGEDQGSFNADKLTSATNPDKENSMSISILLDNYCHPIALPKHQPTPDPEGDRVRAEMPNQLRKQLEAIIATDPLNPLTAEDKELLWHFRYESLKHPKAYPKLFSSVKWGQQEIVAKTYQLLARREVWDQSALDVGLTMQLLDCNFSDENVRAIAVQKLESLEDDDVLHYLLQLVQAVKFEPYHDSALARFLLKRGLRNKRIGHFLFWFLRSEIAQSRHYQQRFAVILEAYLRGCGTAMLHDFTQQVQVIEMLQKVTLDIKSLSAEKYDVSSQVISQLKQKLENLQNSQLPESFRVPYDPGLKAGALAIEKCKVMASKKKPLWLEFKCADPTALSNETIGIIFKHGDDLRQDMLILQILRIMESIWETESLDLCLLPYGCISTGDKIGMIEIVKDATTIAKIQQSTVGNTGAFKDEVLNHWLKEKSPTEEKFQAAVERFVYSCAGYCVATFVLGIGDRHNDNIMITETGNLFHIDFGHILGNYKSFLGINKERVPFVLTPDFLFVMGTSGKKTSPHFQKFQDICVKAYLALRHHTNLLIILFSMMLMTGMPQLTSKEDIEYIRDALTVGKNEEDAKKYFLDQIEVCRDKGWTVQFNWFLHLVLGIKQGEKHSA
Sequence of CLK2 (P49760 whole entry): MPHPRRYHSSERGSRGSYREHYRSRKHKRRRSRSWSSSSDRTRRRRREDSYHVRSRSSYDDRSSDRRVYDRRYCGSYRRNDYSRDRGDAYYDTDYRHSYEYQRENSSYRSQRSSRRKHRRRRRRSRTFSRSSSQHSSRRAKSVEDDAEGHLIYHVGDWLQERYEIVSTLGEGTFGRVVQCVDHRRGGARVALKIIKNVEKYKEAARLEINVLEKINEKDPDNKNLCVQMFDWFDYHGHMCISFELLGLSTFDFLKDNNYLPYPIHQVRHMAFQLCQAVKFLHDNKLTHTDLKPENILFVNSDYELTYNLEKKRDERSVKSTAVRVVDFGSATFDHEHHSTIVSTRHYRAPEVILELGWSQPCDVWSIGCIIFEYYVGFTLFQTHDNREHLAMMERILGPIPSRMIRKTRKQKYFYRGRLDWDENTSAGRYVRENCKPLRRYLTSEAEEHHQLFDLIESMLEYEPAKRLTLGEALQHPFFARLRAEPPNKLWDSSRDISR
Experimental for CLK2: (§1) Selectivity profiling assays were performed by the Invitrogen SelectScreen™ Services. […] The concentration of ATP was selected to be equal to the KM, unless indicated otherwise.
Experimental for GAK: as §1
Experimental for MYLK2 (skMLCK): as §1
Experimental for PDK1 Direct: as §1
Experimental for PIK3CG (p110 gamma): as §1
Experimental for SGK (SGK1): as §1
Experimental for SLK: as §1
Experimental for ~40 kDa protein: Data represent means ± SEM.
The term in situ is used to designate experiments in which live cell cultures are treated with inhibitor, whereas the term in vitro refers to experiments in which the inhibitor is incubated with cell lysates. Compounds were diluted in growth medium from a 1000x concentrated stock solution in DMSO. […] After 48 h, cells were treated with compound for 1 h. Cells were collected by suspension in PBS and centrifuged (1000g, 5 min, rt). Pellets were flash-frozen in liquid nitrogen and stored at −80 °C until use. For in situ treatment post-differentiation, HL-60 cells were differentiated as described above and incubated with compound for 1 h unless specified otherwise. Cells were collected by suspension for non-adherent cells and trypsinization for adherent cells. After collection, cells were centrifuged (200g, 5 min, rt) and washed in equal volume of PBS (1000g, 5 min, rt). Cell pellets were flash-frozen in liquid nitrogen and stored at −80 °C until use.

Consider `C#CCOc1ccc(Nc2ncc(Cl)c(Nc3ccccc3NC(=O)C=C)n2)c(OC)c1` [Compound 6], for which the inhibition at 1 µM at CLK2 was 1%; on GAK (setting [1]), 108%; on GAK (read-out: Inhibition at 1 µM (%), GAK, 1 µM, LanthaScreen Binding), 108%; on MYLK2 (skMLCK) (setting [1]), -3%; at PDK1 Direct (setting [1]), 5%; at PDK1 Direct (read-out: Inhibition at 1 µM (%), PDK1 Direct, 1 µM, ZLYTE, ATP Km app), 6%. Moreover, the inhibition at 1 µM is 13% on PIK3CG (p110 gamma) (setting [1]); 9% at PIK3CG (p110 gamma) (read-out: Inhibition at 1 µM (%), PIK3CG (p110 gamma), 1 µM, Adapta, ATP Km app); 10% against SGK (SGK1) (setting [1]); 10% at SGK (SGK1) (read-out: Inhibition at 1 µM (%), 1 µM, ZLYTE, ATP Km app); 4% against SLK (setting [1]). For the same molecule, the IC50 against GAK is 0.0126 µM. Moreover, the “Inhibition at 1 µM (%)” value at GAK (GAK, 1 µM, LanthaScreen Binding, listed as WEL028, 1 µM) was 109%; at MYLK2 (skMLCK) it was 2%; at MYLK2 (skMLCK) (listed as WEL028, 1 µM) it was -8%; at PDK1 Direct (PDK1 Direct, 1 µM, ZLYTE, ATP Km app, listed as WEL028, 1 µM), 3%; at PIK3CG (p110 gamma) (PIK3CG (p110 gamma), 1 µM, Adapta, ATP Km app, listed as WEL028, 1 µM), 18%; at SGK (SGK1) (1 µM, ZLYTE, ATP Km app, listed as WEL028, 1 µM), 9%. Further, on SLK (1 µM, LanthaScreen Binding, listed as WEL028, 1 µM), the “Inhibition at 1 µM (%)” value was 1% and 7%. Besides, the Apparent fold selectivity at GAK (IC50 on that kinase divided by IC50 on FES^S700C) was 3 fold. For the same molecule, the inhibition at 0.1 µM on ~40 kDa protein was roughly 10%.
